According to article PMC10139140, “Synthesis of Novel 2-(Cyclopentylamino)thiazol-4(5H)-one Derivatives with Potential Anticancer, Antioxidant, and 11β-HSD Inhibitory Activities” (International Journal of Molecular Sciences, 2023):

Experiments:
[1] = tested on: human colon carcinoma (Caco-2); assay: MTS metabolic activity assay, Caco-2 cells; type: cell-based; conditions: Homo sapiens, 72 h, read-out: Cell metabolic activity (MTS), % of untreated control
Method: (§1) The BJ (CRL-2522), Caco-2 (HTB-37), PANC-1 (CRL-1469), U-118 MG (HTB-15), SK-MEL-30 (ACC 151), and MDA-MB-231 (HTB-26) cell lines were purchased from ATCC (Manassas, VA, USA) or DSMZ (Braunschweig, GERMANY). Cells were cultured in accordance with manufacturers' recommendations in a DMEM, MEM, or RPMI-1640 (Sigma, Saint Louis, MO, USA; Gibco, Waltham, MA, USA), supplemented with 10% FBS, except for Caco-2 (20%) (Thermo Fisher Scientific, Waltham, MA, USA) and 1% antibiotic mix solution (penicillin, streptomycin; Thermo Fisher Scientific, Waltham, MA, USA) in a humidified atmosphere with 5% CO2 at 37 °C. All cell lines were cultured in T75 cell culture flasks or cell culture dishes to reach 80–90% confluency and seeded at a standard density of 5 × 10^3 cells/0.32 cm^2, except for BJ cells at 2 × 10^3 cells/0.32 cm^2.
(§2) The MTS ((MTS: 3-(4,5-dimethylthiazol-2-yl)-5-(3-carboxymethoxyphenyl)-2-(4-sulfophenyl)-2H-tetrazolium)) assay was performed following previously reported method. Briefly, cells were seeded at a standard density into 96-well flat-bottom plates and incubated for 24 h, followed by the treatment. The various concentrations of compounds were prepared and treated for the next 72 h. MTS solution was added for 3h and incubated at standard conditions, protected from light. Finally, the absorbance was read at […] and 620 nm wavelengths using a Synergy H1 microplate reader (BioTek, Santa Clara, CA, USA). The results are presented as %, while untreated control cells were considered 100%.

11β-HSD1 = target: T1, 11β-HSD1 (Homo sapiens, UniProt P28845); assay: Inhibition of 11β-HSD1 (cortisone to cortisol, human liver microsomes, cortisol ELISA); type: biochemical
T1 construct: Human liver microsomes were used as a source of 11β-HSD1 enzyme; tissue XenoTech Lot No. 1410013; host or cells: pooled human liver microsomes, mixed gender
T1 sequence (P28845 whole entry): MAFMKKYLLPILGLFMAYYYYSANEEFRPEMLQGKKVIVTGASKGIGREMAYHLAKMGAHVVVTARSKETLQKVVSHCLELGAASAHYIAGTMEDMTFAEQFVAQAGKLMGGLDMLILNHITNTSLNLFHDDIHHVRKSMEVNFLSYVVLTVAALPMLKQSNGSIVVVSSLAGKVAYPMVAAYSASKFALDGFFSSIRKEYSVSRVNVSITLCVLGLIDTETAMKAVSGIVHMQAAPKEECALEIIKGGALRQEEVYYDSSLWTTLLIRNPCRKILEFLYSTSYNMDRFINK
Method: The resulting solution with a final volume of 100 µL was incubated for 2.5 h at 37 °C. To stop the reaction, 10 µL of a 100 µM solution of 18β-glycyrrhetinic acid in PBS was added. The level of cortisol obtained in the reaction was measured by commercially available ELISA kit.
As a control, analogous tests without the addition of inhibitors were used. Half the inhibitory concentration (causing 50% reduction of cortisol or cortisone) was read from the chart.

11β-HSD2 = target: T2, 11β-HSD2 (Homo sapiens, UniProt P80365); assay: Inhibition of 11β-HSD2 (cortisol to cortisone, human microsomes, cortisol ELISA); type: biochemical; conditions: 2.5 h, 37 °C
T2 construct: Human liver microsomes were used as a source of 11β-HSD2 enzyme; tissue XenoTech Lot No. 1710160; host or cells: human kidney microsomes, mixed gender (method text says human liver microsomes)
T2 sequence (P80365 1-405): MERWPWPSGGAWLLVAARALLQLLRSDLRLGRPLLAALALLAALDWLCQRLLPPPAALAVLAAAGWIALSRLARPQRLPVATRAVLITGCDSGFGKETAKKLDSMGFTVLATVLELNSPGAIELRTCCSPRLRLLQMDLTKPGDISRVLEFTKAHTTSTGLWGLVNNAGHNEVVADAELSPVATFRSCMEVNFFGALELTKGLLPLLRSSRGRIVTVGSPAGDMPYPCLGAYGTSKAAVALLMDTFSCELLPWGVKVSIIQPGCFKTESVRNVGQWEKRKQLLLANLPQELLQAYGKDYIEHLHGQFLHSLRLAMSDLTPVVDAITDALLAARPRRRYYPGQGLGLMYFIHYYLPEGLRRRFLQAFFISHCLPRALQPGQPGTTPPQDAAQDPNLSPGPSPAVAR
Method: The resulting solution with a final volume of 100 µL was incubated for 2.5 h at 37 °C. […] The level of unreacted cortisol was measured by a commercially available ELISA kit.

BJ cells = assay: MTS metabolic activity assay, BJ cells; type: cell-based; conditions: Homo sapiens, 72 h, read-out: Cell metabolic activity (MTS), % of untreated control
Method: as §1, §2

[2] = tested on: skin melanoma (SK-MEL-30); assay: MTS metabolic activity assay, SK-MEL-30 cells; type: cell-based; conditions: Homo sapiens, 72 h, read-out: Cell metabolic activity (MTS), % of untreated control
Method: as §1, §2

[3] = tested on: human pancreatic carcinoma (PANC-1); assay: MTS metabolic activity assay, PANC-1 cells; type: cell-based; conditions: Homo sapiens, 72 h, read-out: Cell metabolic activity (MTS), % of untreated control
Method: as §1, §2

glioma (U-118 MG) = assay: MTS metabolic activity assay, U-118 MG cells; type: cell-based; conditions: Homo sapiens, U-118-MG, U118-MG, 72 h, read-out: Cell metabolic activity (MTS), % of untreated control
Method: as §1, §2

[4] = tested on: human breast carcinoma (MDA-MB-231); assay: MTS metabolic activity assay, MDA-MB-231 cells; type: cell-based; conditions: Homo sapiens, 72 h, read-out: Cell metabolic activity (MTS), % of untreated control
Method: as §1, §2

Compound: CC1SC(NC2CCCC2)=NC1=O (stereo not drawn) [Compound 3a, 2-(cyclopentylamino)-5-methylthiazol-4(5H)-one]
- viability at 10 µM ([1]; Caco-2, 10 µM): 86.2%
- viability at 20 µM ([1]; Caco-2, 20 µM): 92.8%
- viability at 50 µM ([1]; Caco-2, 50 µM): 82.6%
- viability at 100 µM ([1]; Caco-2, 100 µM): 81.6%
- viability at 200 µM ([1]; Caco-2, 200 µM): 76.9%
- viability at 300 µM ([1]; Caco-2, 300 µM): 75.5%
- viability at 500 µM ([1]; Caco-2, 500 µM): 66.8%
- IC50 (11β-HSD1): > 10 µM
- inhibition at 10 µM (11β-HSD1; 10 µM, 2.5 h, 37 °C): 10.9 ± 4.08%
- inhibition at 10 µM (11β-HSD2): 40.3 ± 0.65%
- viability at 10 µM (BJ cells; 10 µM): 95.9%
- viability at 20 µM (BJ cells; 20 µM): 98.4%
- viability at 50 µM (BJ cells; 50 µM): 102%
- viability at 100 µM (BJ cells; 100 µM): 112%
- viability at 200 µM (BJ cells; 200 µM): 109%
- viability at 300 µM (BJ cells; 300 µM): 109%
- viability at 500 µM (BJ cells; 500 µM): 110%
- viability at 10 µM ([2]; SK-MEL-30, 10 µM): 104%
- viability at 20 µM ([2]; SK-MEL-30, 20 µM): 102%
- viability at 50 µM ([2]; SK-MEL-30, 50 µM): 102%
- viability at 100 µM ([2]; SK-MEL-30, 100 µM): 106%
- viability at 200 µM ([2]; SK-MEL-30, 200 µM): 103%
- viability at 300 µM ([2]; SK-MEL-30, 300 µM): 101%
- viability at 500 µM ([2]; SK-MEL-30, 500 µM): 97.6%
- viability at 10 µM ([3]; PANC-1, 10 µM): 99.7%
- viability at 20 µM ([3]; PANC-1, 20 µM): 104%
- viability at 50 µM ([3]; PANC-1, 50 µM): 106%
- viability at 100 µM ([3]; PANC-1, 100 µM): 107%
- viability at 200 µM ([3]; PANC-1, 200 µM): 110%
- viability at 300 µM ([3]; PANC-1, 300 µM): 106%
- viability at 500 µM ([3]; PANC-1, 500 µM): 104%
- viability at 10 µM (glioma (U-118 MG); 10 µM): 111%
- viability at 20 µM (glioma (U-118 MG); 20 µM): 109%
- viability at 50 µM (glioma (U-118 MG); 50 µM): 113%
- viability at 100 µM (glioma (U-118 MG); 100 µM): 110%
- viability at 200 µM (glioma (U-118 MG); 200 µM): 110%
- viability at 300 µM (glioma (U-118 MG); 300 µM): 110%
- viability at 500 µM (glioma (U-118 MG); 500 µM): 105%
- viability at 10 µM ([4]; MDA-MB-231, 10 µM): 105%
- viability at 20 µM ([4]; MDA-MB-231, 20 µM): 107%
- viability at 50 µM ([4]; MDA-MB-231, 50 µM): 103%
- viability at 100 µM ([4]; MDA-MB-231, 100 µM): 105%
- viability at 200 µM ([4]; MDA-MB-231, 200 µM): 104%
- viability at 300 µM ([4]; MDA-MB-231, 300 µM): 93.6%
- viability at 500 µM ([4]; MDA-MB-231, 500 µM): 89.8%
